# Source: US20120108585A1, “BENZOXAZOLES, BENZTHIAZOLES AND RELATED ANALOGS AS SIRTUIN MODULATORS” (Sirtris Pharmaceuticals, Inc., priority 2008, published 2012)
# Molecular target: T1, SIRT1 (Homo sapiens, UniProt Q96EB6)
# T1 sequence (Q96EB6 1-747): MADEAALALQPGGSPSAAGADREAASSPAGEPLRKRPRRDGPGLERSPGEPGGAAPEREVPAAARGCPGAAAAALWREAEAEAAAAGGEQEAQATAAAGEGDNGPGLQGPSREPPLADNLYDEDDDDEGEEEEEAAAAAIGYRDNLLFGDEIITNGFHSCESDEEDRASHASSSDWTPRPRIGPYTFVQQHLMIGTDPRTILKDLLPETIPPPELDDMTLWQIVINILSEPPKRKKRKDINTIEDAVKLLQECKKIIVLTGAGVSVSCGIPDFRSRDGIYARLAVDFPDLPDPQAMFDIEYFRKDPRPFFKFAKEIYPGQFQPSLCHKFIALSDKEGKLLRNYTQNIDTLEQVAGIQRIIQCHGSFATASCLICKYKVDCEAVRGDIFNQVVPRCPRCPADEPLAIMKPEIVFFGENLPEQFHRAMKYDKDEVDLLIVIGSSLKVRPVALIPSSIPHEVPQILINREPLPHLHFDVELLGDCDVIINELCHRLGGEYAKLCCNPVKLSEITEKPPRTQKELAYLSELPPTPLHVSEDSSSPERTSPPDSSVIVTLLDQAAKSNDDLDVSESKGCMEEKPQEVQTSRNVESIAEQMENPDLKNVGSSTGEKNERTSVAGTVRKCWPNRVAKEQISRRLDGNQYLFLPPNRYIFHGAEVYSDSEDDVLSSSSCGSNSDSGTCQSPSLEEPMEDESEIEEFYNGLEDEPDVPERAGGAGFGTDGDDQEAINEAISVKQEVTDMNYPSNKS
# Experiment: mass spectrometry based assay to identify modulators of SIRT1 activity (deacetylation of p53-based acetylated peptide)
# Assay type: biochemical
# Settings: SIRT1 activation, 10 nM SIRT1, 0.5 μM peptide substrate, 120 μM βNAD+, 25 minutes at 25° C.; for Emax: 25 min, read-out: % Fold Act. (percent maximum fold activation)
# From the text: A mass spectrometry based assay was used to identify modulators of SIRT1 activity. The mass spectrometry based assay utilizes a peptide having 20 amino acid residues as follows: Ac-EE-K(biotin)-GQSTSSHSK(Ac)NleSTEG-K(5TMR)-EE-NH2 (SEQ ID NO: 1) wherein K(Ac) is an acetylated lysine residue and Nle is a norleucine. The peptide is labeled with the fluorophore 5TMR (excitation 540 nm/emission 580 nm) at the C-terminus. The sequence of the peptide substrate is based on p53 with several modifications. In addition, the methionine residue naturally present in the sequence was replaced with the norleucine because the methionine may be susceptible to oxidation during synthesis and purification.
# The mass spectrometry assay is conducted as follows: 0.5 μM peptide substrate and 120 μM βNAD^+ is incubated with 10 nM SIRT1 for 25 minutes at 25° C. in a reaction buffer (50 mM Tris-acetate pH 8, 137 mM NaCl, 2.7 mM KCl, 1 mM MgCl2, 5 mM DTT, 0.05% BSA). Test compounds may be added to the reaction as described above. The SirT1 gene is cloned into a T7-promoter containing vector and transformed into BL21(DE3). After the 25 minute incubation with SIRT1, 10 μL of 10% formic acid is added to stop the reaction. Reactions are sealed and frozen for later mass spec analysis. Determination of the mass of the substrate peptide allows for precise determination of the degree of acetylation (i.e. starting material) as compared to deacetylated peptide (product).
# A control for inhibition of sirtuin activity is conducted by adding 1 μL of 500 mM nicotinamide as a negative control at the start of the reaction (e.g., permits determination of maximum sirtuin inhibition). A control for activation of sirtuin activity is conducted using 10 nM of sirtuin protein, with 1 μL of DMSO in place of compound, to determine the amount of deacetylation of the substrate at a given timepoint within the linear range of the assay. This timepoint is the same as that used for test compounds and, within the linear range, the endpoint represents a change in velocity.
# For the above assay, SIRT1 protein was expressed and purified as follows. The SirT1 gene was cloned into a T7-promoter containing vector and transformed into BL21(DE3). The protein was expressed by induction with 1 mM IPTG as an N-terminal His-tag fusion protein at 18° C. overnight and harvested at 30,000×g. Cells were lysed with lysozyme in lysis buffer (50 mM Tris-HCl, 2 mM Tris[2-carboxyethyl]phosphine (TCEP), 10 μM ZnCl2, 200 mM NaCl) and further treated with sonication for 10 min for complete lysis. The protein was purified over a Ni-NTA column (Amersham) and fractions containing pure protein were pooled, concentrated and run over a sizing column (Sephadex S200 26/60 global). The peak containing soluble protein was collected and run on an Ion-exchange column (MonoQ). Gradient elution (200 mM-500 mM NaCl) yielded pure protein. This protein was concentrated and dialyzed against dialysis buffer (20 mM Tris-HCl, 2 mM TCEP) overnight. The protein was aliquoted and frozen at −80° C. until further use.
# Sirtuin modulating compounds that activated SIRT1 were identified using the assay described above and are shown below in Table 1. The EC1-5 values for the activating compounds are represented by A (EC1-5<1.0 uM), B (EC1-5 1-25 uM), C (EC1-5>25 uM). The percent maximum fold activation is represented by A (Fold activation>150%) or B (Fold Activation<150%).
Emax [%],EC1.5,SMILES
> 150,A (EC1-5<1.0 uM),O=C(Nc1nc(CN2CCOCC2)cs1)c1cccc2oc(-c3cc(F)ccc3C(F)(F)F)nc12 [Compound 149]
> 150,A (EC1-5<1.0 uM),O=C(Nc1cccc(CN2CCOCC2)n1)c1cccc2oc(-c3cc(F)ccc3C(F)(F)F)nc12 [Compound 150]
< 150,A (EC1-5<1.0 uM),O=C(Nc1cccc(N2CCOCC2)n1)c1cccc2sc(-c3cccc(C(F)(F)F)c3)nc12 [Compound 151]
> 150,B (EC1-5 1-25 uM),O=C(Nc1cccc(N2CCCC2)n1)c1cccc2sc(-c3cccc(C(F)(F)F)c3)nc12 [Compound 153]
> 150,A (EC1-5<1.0 uM),O=C(Nc1ccnc(N2CCCC2)c1)c1cccc2sc(-c3cccc(C(F)(F)F)c3)nc12 [Compound 154]

# Second part, the molecule before the results:
SMILES,Emax [%],EC1.5
O=C(Nc1cccc(CN2CCOCC2)n1)c1cccc2oc(-c3ccccc3C(F)(F)F)nc12 [Compound 140],> 150,A (EC1-5<1.0 uM)
O=C(Nc1nccs1)c1cccc2oc(-c3ccccc3OC(F)(F)F)nc12 [Compound 141],> 150,B (EC1-5 1-25 uM)
O=C(Nc1ccccn1)c1cccc2oc(-c3ccccc3OC(F)(F)F)nc12 [Compound 142],> 150,B (EC1-5 1-25 uM)
O=C(Nc1nccs1)c1cccc2oc(-c3ccc(F)cc3C(F)(F)F)nc12 [Compound 143],< 150,B (EC1-5 1-25 uM)
O=C(Nc1ccccn1)c1cccc2oc(-c3ccc(F)cc3C(F)(F)F)nc12 [Compound 144],< 150,B (EC1-5 1-25 uM)
O=C(Nc1nc(CN2CCOCC2)cs1)c1cccc2oc(-c3ccc(F)cc3C(F)(F)F)nc12 [Compound 145],> 150,B (EC1-5 1-25 uM)
O=C(Nc1cccc(CN2CCOCC2)n1)c1cccc2oc(-c3ccc(F)cc3C(F)(F)F)nc12 [Compound 146],> 150,A (EC1-5<1.0 uM)
O=C(Nc1nccs1)c1cccc2oc(-c3cc(F)ccc3C(F)(F)F)nc12 [Compound 147],< 150,C (EC1-5>25 uM)
O=C(Nc1ccccn1)c1cccc2oc(-c3cc(F)ccc3C(F)(F)F)nc12 [Compound 148],< 150,C (EC1-5>25 uM)
